Experimental findings from publication PMC7496096, “Functional Characterisation of ClpP Mutations Conferring Resistance to Acyldepsipeptide Antibiotics in Firmicutes” (Chembiochem, 2020) are described below.

Broadly, the MIC is the lowest concentration that inhibits growth of the organism.

The subject of test [1] is wild-type SaClpP. Put plainly: Suc-LY-AMC peptide degradation by ADEP-activated ClpP. It is filed as biochemical, Staphylococcus aureus. To be noted: 1 μM SaClpP, 100 μM Suc-LY-AMC, 32 °C, 15 min pre-incubation; Figure 6B. As for the experimental part: Peptide and protein degradation assays: Degradation assays with the fluorogenic peptide substrate Suc‐Leu‐Tyr‐7‐amino‐4‐methylcoumarin (Suc‐LY‐AMC) were performed in either BsClpP (50 mM Tris‐HCl, 25 mM MgCl2, 200 mM KCl, 2 mM DTT, pH 8) or SaClpP activity buffer (100 mM HEPES pH 7, 100 mM NaCl) in black, flat‐bottom‐96‐well plates (Sarstedt) with a total reaction volume of 100 μl and reaction temperatures of 32 °C and 37 °C for SaClpP and BsClpP, respectively. Purified ClpP proteins (final concentrations as indicated in the respective experiments) and ADEP2 (applied in 1 μl from a DMSO stock solution) were mixed and pre‐incubated for 15 min at reaction temperatures. […] Fluorophore release upon peptide hydrolysis was read out in a Tecan Infinite M200Pro plate reader (excitation/emission: 380/460 nm) every 30–60 s for 1 h. […] SaClpP (1 μM) and ADEP2 (concentrations as indicated) were pre‐incubated at 32 °C for 15 min before initiating the reaction by addition of FITC – casein (20 μM final concentration) and fluorescence readout (excitation/emission: 485/535 nm). In both assays, enzyme velocity was determined by linear regression of the initial segment of the fluorescence‐time plot in GraphPad Prism 5. […] Decrease of fluorescence was monitored at an emission wavelength of 535 nm in white, flat‐bottom 96‐well‐plates (Greiner). […]

Test [2] relates to B. subtilis RC5. The format is cell-based, Bacillus subtilis. Particulars: resistant clone of B. subtilis 168; ClpP K85→STOP, premature stop. As for the experimental part: (§1) Determination of antibacterial activity: ADEP1 was purified from the culture supernatant of S. hawaiiensis NRRL 15010 as described.4 ADEPs 2, 4, 7, 9 were custom synthesised by EMC Microcollections, Tübingen, or provided by AiCuris, Wuppertal, Germany. The minimal inhibitory concentration (MIC) was determined by broth microdilution in Mueller‐Hinton broth (without cation adjustment) according to the guidelines of the Clinical Laboratory Standards Institute (CLSI).69 The inoculum was set to 5×10^4 CFU mL^−1 to allow some distance to the determined spontaneous resistance frequencies. […] All other ADEPs were used from DMSO stock solutions kept at −20 °C.
(§2) Screening for ADEP‐resistant mutants and determination of resistance rates: Single colonies of wild‐type strains grown on Mueller‐Hinton agar plates overnight were suspended in sterile saline and a final inoculum of 5×10^6 cells was spread on plates supplemented with different ADEP congeners at 4× and 10× the MIC. For B. subtilis strain 3xclpP, ADEP7‐containing Mueller‐Hinton agar plates were additionally supplemented with 1 mM IPTG. Resistant colonies were counted after 24 h at 37 °C and colonies were randomly chosen for MIC determinations and sequencing. Mutations in the clpP gene of the respective isolated mutants were analysed by amplifying the clpP gene (and upstream promoter region) by PCR and sequencing of the resulting PCR amplicons (LGC genomics). Sequencing data were analysed by using SnapGene software (GSL Biotech).

The subject of test [3] is B. subtilis RC7. The format is cell-based, Bacillus subtilis. Particulars: resistant clone of B. subtilis 168; ClpP Q132→STOP, premature stop. As for the experimental part:
as §1, §2

Test [4] deals with B. subtilis RC9. It is filed as cell-based, Bacillus subtilis. Particulars: resistant clone of B. subtilis 168; ClpP I165→N (equatorial interface; α6). As for the experimental part: as §1, §2
Test [5] has as its system B. subtilis RC3. The format is cell-based, Bacillus subtilis. To be noted: resistant clone of B. subtilis 168; ClpP A76→T (ClpP core; α3). As for the experimental part:
as §1, §2

For test [6], the system named is B. subtilis RC4. It is filed as cell-based, Bacillus subtilis. To be noted: resistant clone of B. subtilis 168; G insertion, frame shift, premature stop (E163→STOP). As for the experimental part:
as §1, §2

Test [7] has as its system B. subtilis RC6. It is filed as cell-based, Bacillus subtilis. To be noted: resistant clone of B. subtilis 168; ClpP N65→N; Y183→F (C-terminus; α7). As for the experimental part: as §1, §2
For test [8], the system named is B. subtilis RC8. It is filed as cell-based, Bacillus subtilis. To be noted: resistant clone of B. subtilis 168; ClpP R142→H, intra-ring interaction. As for the experimental part:
as §1, §2

The subject of test [9] is B. subtilis RC12. It is filed as cell-based, Bacillus subtilis. Particulars: resistant clone of B. subtilis 168; ClpP A101→T (ClpP core; α4). As for the experimental part:
as §1, §2

For test [10], the system named is B. subtilis RC1. The format is cell-based, Bacillus subtilis. Particulars: resistant clone of B. subtilis 168; ClpP E156→STOP, premature stop. As for the experimental part: as §1, §2
The subject of test [11] is B. subtilis RC2. It is filed as cell-based, Bacillus subtilis. To be noted: resistant clone of B. subtilis 168; ClpP L3→STOP, premature stop. As for the experimental part:
as §1, §2

Test [12] relates to B. subtilis 3xclpP clones. It is filed as cell-based, Bacillus subtilis. To be noted: B. subtilis 3xclpP resistant clones. As for the experimental part:
as §1, §2

Test [13] has as its system B. subtilis RC11. It is filed as cell-based, Bacillus subtilis. Particulars: resistant clone of B. subtilis 168; ClpP Q132→STOP, premature stop. As for the experimental part:
as §1, §2

Test [14] has as its system B. subtilis RC10. It is filed as cell-based, Bacillus subtilis. To be noted: resistant clone of B. subtilis 168; ClpP A177→V (C-terminus; α7). As for the experimental part:
as §1, §2

The structures appear in SMILES notation. Values after ≈ are worked out from the molar mass of the structure shown. Some results are limits rather than exact numbers.

`C[C@@H]1C[C@H]2C(=O)OC[C@H](NC(=O)[C@H](Cc3cc(F)cc(F)c3)NC(=O)CCC3CCCCC3)C(=O)N3CCC[C@H]3C(=O)N3CCCC[C@H]3C(=O)N[C@@H](C)C(=O)N2C1` [ADEP2]: in test [1], the “concentration sufficient for full catalytic stimulation (Suc-LY-AMC degradation)” value turned out to be 3 µM. Further, the minimal inhibitory concentration (MIC) is over 64 µg/mL in test [2]; over 64 µg/mL in test [3]; over 64 µg/mL in test [4]; 16 to 32 µg/mL in test [5]; over 64 µg/mL in test [6]; over 64 µg/mL in test [7]. Also, the minimal inhibitory concentration (MIC) in test [8], in [9], in test [10], in test [11], in test [13] and in test [14] was over 64 µg/mL throughout. Also, in [12] (mutation in lacA or aprE ectopic copy), the “MIC, clpP mutations in the ectopic loci” value is about 1 µg/mL (≈ 1.25 µM). The “MIC, clpP mutation in the original locus” value in test [12] (mutation in native clpP locus) is over 64 µg/mL.
